“Also recorded” adds a separate entry of the source.
Columns and labels:
Type in all cases: in vivo, human
[1] = Safety and tolerability in the phase 1 IPE pharmacokinetic study
From the text: The safety population was defined as all randomized subjects who received at least one dose of study drug. The per-protocol population was defined as all safety population subjects who completed the 28-day treatment period without any major protocol deviations, and who provided blood samples for EPA analyses.
Safety assessments consisted of adverse event (AE) monitoring, clinical laboratory measurements (chemistry, hematology, and urinalysis) 12-lead electrocardiographic measurements, vital signs (systolic and diastolic blood pressure, heart rate, respiratory rate, and oral body temperature) and physical examination findings.

[2] = Phase 1 open-label multidose pharmacokinetic study of IPE, EPA in plasma and RBCs by LC-MS/MS
Procedure: A study to characterize the pharmacokinetics of ethyl eicosapentaenoate in plasma and red blood cells after multiple-dose administration of IPE at 2 g per day and 4 g per day was performed in healthy adult male and female humans.
The study was a phase 1, open-label, randomized, multidose study in healthy, nonsmoking men and women aged >18 and ≦55 years with a body mass index (BMI)>18 and ≦30 kg/m^2. Exclusion criteria included use within 6 weeks prior to randomization through study end of any lipid-altering medications or supplements, including statins, niacin at levels of greater than 200 mg/day, fibrates, ezetimibe, bile acid sequestrants, omega-3 fatty acid medications, and supplements or foods enriched with omega-3 fatty acids (no more than 2 servings of fish per week were permitted).
Following a 14-day screening period, subjects entered a 28-day treatment period and were randomized to one of four IPE dose regimen treatment groups as shown in FIG. 1. Group 1 received IPE 2 g daily (1000-mg capsules; twice-daily [BID] regimen); Group 2 received IPE 4 g daily (1000-mg capsules; BID regimen); Group 3 received IPE 2 g daily (1000-mg capsules; once-daily [QD] regimen); and Group 4 received IPE 2 g daily (500-mg capsules; BID regimen). Treatment was administered orally, with or following a meal in the morning and evening for BID regimens, or in the morning only for the QD regimen. Subjects then entered an 18-day post-treatment pharmacokinetic sampling period.
The safety population was defined as all randomized subjects who received at least one dose of study drug. […]
Fasting EPA concentrations were measured with a validated liquid chromatography with tandem mass spectrometry (LC-MS/MS) method in plasma and RBCs prior to the morning dose (days 1, 14, 26, 28) and at serial time points (1, 3, 5, 6, 8, 10, 12, 24, 48, 72, 120, 192, 312, and 432 hours) after the morning dose on day 28. […] In RBCs, EPA was measured in the cell membrane, where EPA is mainly incorporated in phospholipids.
For total EPA in plasma and RBCs, lipids were isolated by acid/methanol/chloroform extraction followed by centrifugation and purified by isohexane and solid-phase extraction after confirmed complete lipid hydrolysis and transmethylation (acid/methanol, 50° C. overnight). […] Quantitation utilized linolenic acid as an internal standard and EPA as the standard for the calibration curve; for total plasma EPA, RBC EPA, and unesterified EPA, the lower limits of quantitation were 10 μg/mL, 5 μg/mL, and 50 ng/mL, respectively. EPA concentrations were measured at Charles River Laboratories Ltd (Elphinstone Research Center, Tranent, Edinburgh, Scotland, UK). […]

[3] = test system: inflammation-associated end points (ICAM-1, Ox-LDL, Lp-PLA2, IL-6, hsCRP); test: MARINE study, inflammation-associated end points (ITT); conditions: for ICAM-1 change from baseline / ICAM-1 end-of-treatment value / IL-6 change from baseline / IL-6 end-of-treatment value / Lp-PLA2 change from baseline / Lp-PLA2 end-of-treatment value / Ox-LDL change from baseline / Ox-LDL end-of-treatment value / hsCRP change from baseline / hsCRP end-of-treatment value: median
From the text: A summary of baseline values, end-of-treatment values, and median placebo-adjusted percent change from baseline to study end of inflammation-associated end points in each of the three ITT sub-populations is shown in Table 5. […]

[4] = test system: inflammation-associated end points (ICAM-1, Ox-LDL, Lp-PLA2, IL-6, hsCRP); test: ANCHOR study, inflammation-associated end points (ITT); conditions: for ICAM-1 median placebo-adjusted % change from baseline / IL-6 median placebo-adjusted % change from baseline / Lp-PLA2 median placebo-adjusted % change from baseline / Ox-LDL median placebo-adjusted % change from baseline / hsCRP median placebo-adjusted % change from baseline: week 12; for ICAM-1 change from baseline / ICAM-1 end-of-treatment value / IL-6 change from baseline / IL-6 end-of-treatment value / Lp-PLA2 change from baseline / Lp-PLA2 end-of-treatment value / Ox-LDL change from baseline / Ox-LDL end-of-treatment value / hsCRP change from baseline / hsCRP end-of-treatment value: week 12, on statin, median
Procedure: A multi-center, placebo-controlled, randomized, double-blind, 12-week study was performed to evaluate the efficacy and safety of >96% E-EPA in patients with fasting triglyceride levels ≧200 mg/dl and <500 mg/dl despite statin therapy (the mean of two qualifying entry values needed to be ≧185 mg/dl and at least one of the values needs to be ≧200 mg/dl). The primary objective of the study was to determine the efficacy of >96% E-EPA 2 g daily and 4 g daily, compared to placebo, in lowering fasting TG levels in patients with high risk for cardiovascular disease and with fasting TG levels ≧200 mg/dL and <500 mg/dL, despite treatment to LDL-C goal on statin therapy.
The population for this study was men and women >18 years of age with a body mass index ≦45 kg/m^2 with fasting TG levels greater than or equal to 200 mg/dl and less than 500 mg/dl and on a stable does of statin therapy (with or without ezetimibe). The statin must have been atorvostatin, rosuvastatin or simvastatin. The dose of statin must have been stable for ≧4 weeks prior to the LDL-C/TG baseline qualifying measurement for randomization. The statin dose was optimal such that the patients are at their LDL-C goal at the LDL-C/TG baseline qualifying measurements. The same statin at the same dose was continued until the study ended.
Approximately 648 patients were randomized at approximately 80 centers in the U.S. The study was a 18- to 20-week, Phase 3, multi-center study consisting of 2 study periods: (1) A 6- to 8-week screening period that included a diet and lifestyle stabilization, a non-statin lipid-altering treatment washout, and an LDL-C and TG qualifying period and (2) A 12-week, double-blind, randomized, placebo-controlled treatment period.
After confirmation of qualifying fasting LDL-C and TG values, eligible patients entered a 12-week, randomized, double-blind treatment period. At Visit 4 (Week 0), patients were randomly assigned to 1 of the following treatment groups: • >96% E-EPA 2 g daily, • >96% E-EPA 4 g daily, or • Placebo.
>96% E-EPA was provided in 1 g liquid-filled, oblong, gelatin capsules. The matching placebo capsule was filled with light liquid paraffin and contains 0 g of >96% E-EPA. >96% E-EPA capsules were to be taken with food (i.e. with or at the end of a meal).
The primary efficacy variable for the double-blind treatment period was percent change in TG from baseline to Week 12 endpoint. The secondary efficacy variables for the double-blind treatment period included the following: • Percent changes in total cholesterol (TC), high-density lipoprotein cholesterol (HDL-C), LDL-C, calculated non-HDL-C, and very low-density lipoprotein cholesterol (VLDL-C) from baseline to Week 12 endpoint; • Percent change in very low-density lipoprotein TG from baseline to Week 12; • Percent changes in apolipoprotein A-I (apo A-I), apolipoprotein B (apo B), and apo A-I/apo B ratio from baseline to Week 12; • Percent changes in lipoprotein(a) from baseline to Week 12; • Percent changes in LDL particle number and size, measured by nuclear magnetic resonance, from baseline to Week 12; • Percent change in remnant-like particle cholesterol from baseline to Week 12; • Percent change in oxidized LDL from baseline to Week 12; • Changes in FPG and HbA1c from baseline to Week 12; • Change in insulin resistance, as assessed by the homeostasis model index insulin resistance, from baseline to Week 12; • Percent change in lipoprotein associated phospholipase A2 (Lp-PLA2) from baseline to Week 12; • Change in intracellular adhesion molecule-1 from baseline to Week 12; • Change in interleukin-2 from baseline to Week 12; • Change in plasminogen activator inhibitor-1 from baseline to Week 12. […]

CC/C=C\C/C=C\C/C=C\C/C=C\C/C=C\CCCC(=O)OCC [IPE, ethyl eicosapentaenoate]
subjects reporting at least one adverse event ([1]; Group 1, IPE 2 g daily, 1000-mg capsules BID): 25.0% | subjects reporting at least one adverse event ([1]; Group 2, IPE 4 g daily, 1000-mg capsules BID): 33.3% | subjects reporting at least one adverse event ([1]; Group 3, IPE 2 g daily, 1000-mg capsules QD): 25.0% | subjects reporting at least one adverse event ([1]; Group 4, IPE 2 g daily, 500-mg capsules BID): 33.3% | changes in laboratory, electrocardiographic, or physical examination findings ([1]; all groups): no clinically meaningful changes | intensity of adverse events ([1]; all groups): mild or moderate in intensity | subjects reporting at least one adverse event ([1]; all groups, safety population n = 48): 29.2% | dose linearity of exposure (dose-normalized AUC and maximum concentration) ([2]; IPE 2 g/day vs 4 g/day (Group 1 vs Group 2), total plasma, total RBCs, unesterified EPA): Dose linearity was observed; also recorded: dose-proportional | effect of gender on exposure parameters ([2]; in vivo): no consistent gender effect was observed | comparison of exposure between QD and BID regimens ([2]; same daily dose 2 g, Group 1 vs Group 3): similarity between QD and BID regimens | comparison of exposure between 500-mg and 1000-mg formulations ([2]; same daily dose 2 g, Group 1 vs Group 4): comparable exposures at comparable doses | ICAM-1 median placebo-adjusted % change from baseline ([3]; AMR101 2 g/day vs placebo): −2.3% | IL-6 median placebo-adjusted % change from baseline ([3]; AMR101 2 g/day vs placebo): 4.7% | Lp-PLA2 median placebo-adjusted % change from baseline ([3]; AMR101 2 g/day vs placebo): −5.1% | Ox-LDL median placebo-adjusted % change from baseline ([3]; AMR101 2 g/day vs placebo): −3.0% | hsCRP median placebo-adjusted % change from baseline ([3]; AMR101 2 g/day vs placebo): −10.1% | ICAM-1 change from baseline ([3]; AMR101 2 g/day): −0.4% | ICAM-1 end-of-treatment value ([3]; AMR101 2 g/day): 257.5 ng/mL | IL-6 change from baseline ([3]; AMR101 2 g/day): 3.4% | IL-6 end-of-treatment value ([3]; AMR101 2 g/day): 3.0 pg/mL | Lp-PLA2 change from baseline ([3]; AMR101 2 g/day): −5.1% | Lp-PLA2 end-of-treatment value ([3]; AMR101 2 g/day): 220.5 ng/mL | Ox-LDL change from baseline ([3]; AMR101 2 g/day): 0.4% | Ox-LDL end-of-treatment value ([3]; AMR101 2 g/day): 75.2 U/L | hsCRP change from baseline ([3]; AMR101 2 g/day): 25.1% | hsCRP end-of-treatment value ([3]; AMR101 2 g/day): 2.4 mg/L | ICAM-1 median placebo-adjusted % change from baseline ([3]; AMR101 4 g/day vs placebo): −2.5% | IL-6 median placebo-adjusted % change from baseline ([3]; AMR101 4 g/day vs placebo): 11.0% | Lp-PLA2 median placebo-adjusted % change from baseline ([3]; AMR101 4 g/day vs placebo): −13.6% | Ox-LDL median placebo-adjusted % change from baseline ([3]; AMR101 4 g/day vs placebo): −6.4% | hsCRP median placebo-adjusted % change from baseline ([3]; AMR101 4 g/day vs placebo): −36.0% | ICAM-1 change from baseline ([3]; AMR101 4 g/day): −0.9% | ICAM-1 end-of-treatment value ([3]; AMR101 4 g/day): 253.0 ng/mL | IL-6 change from baseline ([3]; AMR101 4 g/day): 0.3% | IL-6 end-of-treatment value ([3]; AMR101 4 g/day): 2.4 pg/mL | Lp-PLA2 change from baseline ([3]; AMR101 4 g/day): −17.1% | Lp-PLA2 end-of-treatment value ([3]; AMR101 4 g/day): 201.0 ng/mL | Ox-LDL change from baseline ([3]; AMR101 4 g/day): −3.0% | Ox-LDL end-of-treatment value ([3]; AMR101 4 g/day): 74.8 U/L | hsCRP change from baseline ([3]; AMR101 4 g/day): −2.5% | hsCRP end-of-treatment value ([3]; AMR101 4 g/day): 2.2 mg/L | ICAM-1 median placebo-adjusted % change from baseline ([4]; AMR101 2 g/day vs placebo): −2.2% | IL-6 median placebo-adjusted % change from baseline ([4]; AMR101 2 g/day vs placebo): 7.0% | Lp-PLA2 median placebo-adjusted % change from baseline ([4]; AMR101 2 g/day vs placebo): −8.0% | Ox-LDL median placebo-adjusted % change from baseline ([4]; AMR101 2 g/day vs placebo): −5.8% | hsCRP median placebo-adjusted % change from baseline ([4]; AMR101 2 g/day vs placebo): −6.8% | ICAM-1 change from baseline ([4]; AMR101 2 g/day): 0.5% | ICAM-1 end-of-treatment value ([4]; AMR101 2 g/day): 268.5 ng/mL | IL-6 change from baseline ([4]; AMR101 2 g/day): 6.9% | IL-6 end-of-treatment value ([4]; AMR101 2 g/day): 2.7 pg/mL | Lp-PLA2 change from baseline ([4]; AMR101 2 g/day): −1.8% | Lp-PLA2 end-of-treatment value ([4]; AMR101 2 g/day): 183.5 ng/mL | Ox-LDL change from baseline ([4]; AMR101 2 g/day): 2.6% | Ox-LDL end-of-treatment value ([4]; AMR101 2 g/day): 55.8 U/L | hsCRP change from baseline ([4]; AMR101 2 g/day): 10.3% | hsCRP end-of-treatment value ([4]; AMR101 2 g/day): 2.5 mg/L | ICAM-1 median placebo-adjusted % change from baseline ([4]; AMR101 4 g/day vs placebo): −2.4% | IL-6 median placebo-adjusted % change from baseline ([4]; AMR101 4 g/day vs placebo): −1.0% | Lp-PLA2 median placebo-adjusted % change from baseline ([4]; AMR101 4 g/day vs placebo): −19.0% | Ox-LDL median placebo-adjusted % change from baseline ([4]; AMR101 4 g/day vs placebo): −13.3% | hsCRP median placebo-adjusted % change from baseline ([4]; AMR101 4 g/day vs placebo): −22.0% | ICAM-1 change from baseline ([4]; AMR101 4 g/day): 0.8% | ICAM-1 end-of-treatment value ([4]; AMR101 4 g/day): 270.0 ng/mL | IL-6 change from baseline ([4]; AMR101 4 g/day): 3.1% | IL-6 end-of-treatment value ([4]; AMR101 4 g/day): 2.6 pg/mL | Lp-PLA2 change from baseline ([4]; AMR101 4 g/day): −12.8% | Lp-PLA2 end-of-treatment value ([4]; AMR101 4 g/day): 160.0 ng/mL | Ox-LDL change from baseline ([4]; AMR101 4 g/day): −4.8% | Ox-LDL end-of-treatment value ([4]; AMR101 4 g/day): 51.4 U/L | hsCRP change from baseline ([4]; AMR101 4 g/day): −2.4% | hsCRP end-of-treatment value ([4]; AMR101 4 g/day): 2.0 mg/L
